# Values of other authors in PubChem BioAssay AID1259409 (Chemical Carcinogenesis Research Information System (CCRIS), 2018).
# Test system: rodent chemically induced tumor inhibition, incidence and multiplicity
# Test: CCRIS tumor inhibitor studies
# Conditions: Route [Inhibitor]: ORAL
structure (smiles),measurement,setting,value
CC(=O)Oc1ccccc1C(=O)O,"tumour outcome (control, treated, inhibition, significance)","Carcinogen: 4-(METHYLNITROSAMINO)-1-(3-PYRIDYL)-1-BUTANONE, 64091-91-4, Dose [Inhibitor]: 0, 147 MMOL/KG BW/D IN DIETS FOR DURATION OF STUDY BEGINNING 2 WK PRIOR TO CARCINOGEN TREATMENT (STUDY DURATION: 25 WK), Species: MOUSE, Strain/Sex: STRAIN-A/FEMALE, Target Tissue: Type of Lesion: LUNG:TUMOR, Dose [Carcinogen]: 2.2 MMOL/KG BW (TOTAL DOSE) ADMINISTERED IN DRINKING WATER FOR 7 WK, Promoter: NONE USED","29/29 (100%), 24/24 (100%), 0%, not significant"
same,"tumour outcome (control, treated, inhibition, significance)","Carcinogen: 4-(METHYLNITROSAMINO)-1-(3-PYRIDYL)-1-BUTANONE, 64091-91-4, Dose [Inhibitor]: 0, 294 MG/KG DIET FOR DURATION OF STUDY BEGINNING 2 WK PRIOR TO CARCINOGEN TREATMENT (STUDY DURATION: 25 WK), Species: MOUSE, Strain/Sex: STRAIN-A/FEMALE, Target Tissue: Type of Lesion: LUNG: TUMOR, Dose [Carcinogen]: 9.1 MG/MOUSE IN DRINKING WATER FOR 7 WK, Promoter: NONE USED","29/29 (100%), 24/24 (100%), 0%, not significant"
same,"tumour outcome (control, treated, inhibition, significance)","Carcinogen: 4-(METHYLNITROSAMINO)-1-(3-PYRIDYL)-1-BUTANONE, 64091-91-4, Dose [Inhibitor]: 0, 294 MMOL/KG BW/D IN DIET FOR DURATION OF STUDY BEGINNING 2 WK PRIOR TO CARCINOGEN TREATMENT (STUDY DURATION: 25 WK), Species: MOUSE, Strain/Sex: STRAIN-A/FEMALE, Target Tissue: Type of Lesion: LUNG: TUMOR, Dose [Carcinogen]: 2.2 MMOL/KG BW (TOTAL DOSE) ADMINISTERED IN DRINKING WATER FOR 7 WK, Promoter: NONE USED","29/29 (100%), 24/24 (100%), 0%, not significant"
same,"tumour outcome (control, treated, inhibition, significance)","Carcinogen: 4-(METHYLNITROSAMINO)-1-(3-PYRIDYL)-1-BUTANONE, 64091-91-4, Dose [Inhibitor]: 0, 588 MMOL/KG BW/D IN DIET FOR DURATION OF STUDY BEGINNING 2 WK PRIOR TO CARCINOGEN TREATMENT (STUDY DURATION: 25 WK), Species: MOUSE, Strain/Sex: STRAIN-A/FEMALE, Target Tissue: Type of Lesion: LUNG: TUMOR, Dose [Carcinogen]: 2.2 MMOL/KG BW (TOTAL DOSE) ADMINISTERED IN DRINKING WATER FOR 7 WK, Promoter: NONE USED","29/29 (100%), 24/24 (100%), 0%, not significant"
same,"tumour outcome (control, treated, inhibition, significance)","Carcinogen: 7,12-DIMETHYLBENZ[A]ANTHRACENE, 57-97-6, Dose [Inhibitor]: 0.6% NEUTRALIZED WITH 12 MG SODIUM CARBONATE DAILY (STUDY DURATION: 14 WK), Species: HAMSTER, Strain/Sex: SYRIAN/FEMALE, MALE, Target Tissue: Type of Lesion: BUCCAL CELLS: EPIDERMOID TUMORS, Dose [Carcinogen]: 0.5% SOLUTION IN MINERAL OIL 3/WK FOR UP TO 14 WK, Promoter: NONE USED","6.4%, 4.8%, 25%, p<0.1"
same,"tumour outcome (control, treated, inhibition, significance)","Carcinogen: AZOXYMETHANE, 25843-45-2, Dose [Inhibitor]: 0, 200 PPM IN DIET BEGINNING 2 WK PRIOR TO CARCINOGEN TREATMENT AND CONTINUING FOR 52 WK (STUDY DURATION: 54 WK), Species: RAT, Strain/Sex: F344/MALE, Target Tissue: Type of Lesion: COLON: ADENOCARCINOMA, Dose [Carcinogen]: 15 MG/KG BW 1/WK FOR 2 WK, Promoter: NONE USED","78%, 53%, 32%, p<0.05"
same,"tumour outcome (control, treated, inhibition, significance)","Carcinogen: AZOXYMETHANE, 25843-45-2, Dose [Inhibitor]: 0, 250 PPM IN DIET FOR 13 WK BEGINNING 36 WK POST LAST CARCINOGEN DOSE (STUDY DURATION: 49 WK), Species: RAT, Strain/Sex: F344/MALE, Target Tissue: Type of Lesion: COLON: ADENOMA, Dose [Carcinogen]: 12 MG/KG BW IN 0.9% SALINE TWICE, Promoter: CHOLIC ACID, 81-25-4","81%, 94%, -16%, not significant"
same,"tumour outcome (control, treated, inhibition, significance)","Carcinogen: AZOXYMETHANE, 25843-45-2, Dose [Inhibitor]: 0, 250 PPM IN DIET FOR 13 WK BEGINNING 36 WK POST LAST CARCINOGEN DOSE (STUDY DURATION: 49 WK), Species: RAT, Strain/Sex: F344/MALE, Target Tissue: Type of Lesion: SMALL INTESTINE: ADENOCARCINOMA, Dose [Carcinogen]: 12 MG/KG BW IN 0.9% SALINE TWICE, Promoter: CHOLIC ACID, 81-25-4","23%, 19%, 17%, not significant"
same,"tumour outcome (control, treated, inhibition, significance)","Carcinogen: AZOXYMETHANE, 25843-45-2, Dose [Inhibitor]: 0, 250 PPM IN DIET FOR 13 WK BEGINNING 36 WK POST LAST CARCINOGEN DOSE (STUDY DURATION: 49 WK), Species: RAT, Strain/Sex: F344/MALE, Target Tissue: Type of Lesion: SMALL INTESTINE: ADENOMA, Dose [Carcinogen]: 12 MG/KG BW IN 0.9% SALINE TWICE, Promoter: CHOLIC ACID, 81-25-4","17%, 47%, -176%, p<0.05"
